pIC50: −log10 of the molar value.
Biological target: T1, Mitochondrial Lon Peptidase 1 (LonP1) (Homo sapiens, UniProt P36776)
T1 construct: LonP1 immunopurified from mitochondria of HOG cells overexpressing LonP1
T1 sequence (P36776 68-959): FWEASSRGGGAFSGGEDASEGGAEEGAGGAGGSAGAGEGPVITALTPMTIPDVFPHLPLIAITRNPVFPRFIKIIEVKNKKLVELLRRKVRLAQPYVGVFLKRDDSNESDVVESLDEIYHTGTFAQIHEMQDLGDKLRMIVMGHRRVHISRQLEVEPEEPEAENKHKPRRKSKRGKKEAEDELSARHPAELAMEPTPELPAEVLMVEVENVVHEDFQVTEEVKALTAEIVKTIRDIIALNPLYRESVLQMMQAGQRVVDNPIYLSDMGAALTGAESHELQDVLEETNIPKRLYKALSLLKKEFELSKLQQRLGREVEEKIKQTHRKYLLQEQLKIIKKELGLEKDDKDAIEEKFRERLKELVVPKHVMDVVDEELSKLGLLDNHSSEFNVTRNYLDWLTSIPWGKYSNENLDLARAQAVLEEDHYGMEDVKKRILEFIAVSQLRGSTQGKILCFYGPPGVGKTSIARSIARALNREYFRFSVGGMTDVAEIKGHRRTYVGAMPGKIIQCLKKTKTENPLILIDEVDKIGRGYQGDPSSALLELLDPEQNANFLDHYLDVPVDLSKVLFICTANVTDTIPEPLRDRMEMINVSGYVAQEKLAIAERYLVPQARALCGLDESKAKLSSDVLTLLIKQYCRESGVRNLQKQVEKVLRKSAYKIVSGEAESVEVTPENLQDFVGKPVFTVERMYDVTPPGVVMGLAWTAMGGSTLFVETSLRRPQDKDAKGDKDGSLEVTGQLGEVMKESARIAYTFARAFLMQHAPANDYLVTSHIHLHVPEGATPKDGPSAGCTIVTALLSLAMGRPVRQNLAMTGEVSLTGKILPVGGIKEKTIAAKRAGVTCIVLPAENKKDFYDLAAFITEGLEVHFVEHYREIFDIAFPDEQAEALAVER
Test: FITC-casein fluorescent protease assay with immunopurified LonP1
Type: biochemical

With CC1(C)OB(c2cccc(N(Cc3ccccc3)C(=O)CCl)c2)OC1(C)C [BT399] the pIC50 was 3.91.
Cc1cc(NC(C#N)C2=Cc3cc(Cl)cc(Cl)c3OC2c2ccccc2)ccc1[B-](F)(F)F (stereo not shown) [BT397] was tested, and the pIC50 was 4.46.
Compound O=C(Nc1ccc(O)cc1)c1cc2cc(Cl)ccc2oc1=O [BT317] has a pIC50 of 4.51.
Compound Cc1cc(NC(C#N)C2=Cc3cc(Cl)cc(Cl)c3OC2c2ccccc2)ccc1B1OC(C)(C)C(C)(C)O1 (stereo not shown) [BT395] has a pIC50 of 4.30.
